Data set [1] deals with Laodel phax striatellus. As to the kind of experiment: Control effect against Laodel phax striatellus (rice seedling spray). The class given is in vivo. The note with it: Concentration 500 ppm; method of Test Example 5. An excerpt:
Control Effect Against Laodel phax striatellus
Test compounds, which had been diluted to designated concentrations by the addition of a 50% aqueous acetone solution (Tween 20, 0.05%), were spread over four rice seedlings (7 days after sowing) sowed in a plastic pot by means of a spray gun, followed by air drying. Thereafter, this pot was covered by a plastic cylinder, and ten larvae at the second instar of Laodel phax striatellus were released in the pot. The pot was then lidded, and the larvae were reared in a chamber at a constant temperature (25° C.).

Data set [2] concerns Tetranychus cinnabarinus. The data set can be described thus: Miticidal effect against Tetranychus cinnabarinus (kidney leaf disk, eggs/larvae/nymphs). The format is in vivo. The note with it: Concentration 500 ppm; method of Test Example 4. The procedure: Miticidal Effect Against Tetranychus cinnabarinus
A kidney leaf disk having a diameter of 2 cm was placed on agar. Seven female adult mites of Tetranychus cinnabarinus were released on the kidney leaf disk. The female adult mites were allowed to oviposit in a chamber kept at a constant temperature (25° C.) for 24 hr. The female adult mites were then removed from the kidney leaf disk. Test compounds, which had been diluted to designated concentrations by the addition of a 50% aqueous acetone solution (Tween 20, 0.05%), were spread over the leaf disk by means of a spray gun, and the leaf disk was then air dried. Thereafter, the leaf disk was stored in a constant-temperature chamber of 25° C. […] The sum of the unhatching rate of eggs and the death rate of larva ticks/nymphs was determined as the total death rate.

For data set [3], the system named is Plutella xylostella. The data set can be described thus: Pesticidal effect against Plutella xylostella (cabbage leaf disk spray). The class given is in vivo. To be noted: Concentration 200 ppm; method of Test Example 1. The text has this:
Pesticidal Effect Against Plutella xylostella
A cabbage leaf disk having a diameter of 5 cm was placed in a plastic cup. Test compounds, which had been diluted to designated concentrations by the addition of a 50% aqueous acetone solution (Tween 20, 0.05%), were spread over the cabbage leaf disk by means of a spray gun, and the cabbage leaf disk was then air dried. Five larvae at the second instar of Plutella xylostella were released in the cup. The cup was then lidded, and the larvae were reared in a chamber at a constant temperature (25° C.).

The test system of data set [4] is Spodoptera litura. The data set can be described thus: Pesticidal effect against Spodoptera litura (cabbage leaf disk spray). The note with it: Concentration 200 ppm; method of Test Example 2. The class given is in vivo. An excerpt:
Pesticidal Effect Against Spodoptera litura
A cabbage leaf disk having a diameter of 5 cm was placed in a plastic cup. Test compounds, which had been diluted to designated concentrations by the addition of a 50% aqueous acetone solution (Tween 20, 0.05%), were spread over the cabbage leaf disk by means of a spray gun, and the cabbage leaf disk was then air dried. Five larvae at the third instar of Spodoptera litura were released in the cup. The cup was then lidded, and the larvae were reared in a chamber at a constant temperature (25° C.).

For data set [5], the system named is Myzus persicae. The data set can be described thus: Pesticidal effect against Myzus persicae (cabbage leaf disk spray). The format is in vivo. The note with it: Concentration 500 ppm; method of Test Example 3. The text has this: Pesticidal Effect Against Myzus persicae
A cabbage leaf disk having a diameter of 2.8 cm was placed in a plastic schale. Test compounds, which had been diluted to designated concentrations by the addition of a 50% aqueous acetone solution (Tween 20, 0.05%), were spread over the cabbage leaf disk by means of a spray gun, and the cabbage leaf disk was then air dried. Thereafter, ten larvae at the first instar of Myzus persicae were released in the schale. The schale was then lidded, and the larvae were reared in a chamber at a constant temperature (25° C.).

The record followed here is patent US7880006B2, “Quinoline derivatives and insecticide comprising thereof as active ingredient” (Meiji Seika Kaisha, Ltd., priority 2004, dated 2011).

One may read the melting point as the temperature of the solid-liquid transition. In turn, `CC(=O)Oc1c(C)c(C)nc2ccc(Oc3ccc(Cl)cc3)c(Cl)c12` [Compound No. 2, 4-Acetoxy-5-chloro-6-(4-chlorophenoxy)-2,3-dimethyl-quinoline] came in with a melting point of 167 to 169 °C.

Consider `CC(=O)Oc1c(C)c(C)nc2cc(Cl)c(Oc3ccc(Cl)cc3)cc12` [Compound No. 22, 4-acetoxy-7-chloro-6-(4-chlorophenoxy)-2,3-dimethyl-quinoline], for which the melting point was 160 to 162 °C.

For `COc1ccc2nc(C)c(C)c(OC(C)=O)c2c1` [JP 2633377 Compund No. 46], in data set [1], the “Death rate, % Laodelphax striatellus” value is on record as 0%. For the same molecule, the “Death rate, % Tetranychus cinnabarinus” value in data set [2] came out at 0%. Further, the “Death rate, % Plutella xylostella” value in data set [3] stood at 0%. In data set [4], the “Death rate, % Spodoptera litura” value is listed as 10%. The “Death rate, % Myzus persicae” value in data set [5] is reported as 0%.

With `CC(=O)Oc1c(C)c(C)nc2ccc(Oc3ccccc3)cc12` [WO 98055460 Compund No. 136], in data set [1], the “Death rate, % Laodelphax striatellus” value came out at 0%. Besides, in data set [2], the “Death rate, % Tetranychus cinnabarinus” value is listed as 0%. The “Death rate, % Plutella xylostella” value in data set [3] is listed as 0%. In data set [4], the “Death rate, % Spodoptera litura” value was determined as 0%. The “Death rate, % Myzus persicae” value in data set [5] is 0%.
